Bridges are numbered along the chain shown (N, C = ends).

This note sets out measurements from US12115207B2, “Treatment of inflammation” (Ariel Scientific Innovations Ltd., priority 2019, dated 2024).

For test [1], the system named is crown-like structures (macrophages) in adipose tissue. The experiment in a line: Crown-like structures in adipose tissue (H&E histology) of submissive mice. The format is in vivo. Particulars: sub-chronic 10 and 30 mg/kg, H&E staining, FIG. 2C. The protocol:
The adipose tissue of submissive mice treated with 10 and 30 mg/kg of ALOS4 were excised and fixed with 4% formalin overnight at 4° C., followed by dehydration and paraffin embedding (Cat #BN0763, Barnaor). Serial sections of 5 μm thickness were cut and placed on charged glass slides (LE-14035838925, Leica, Germany) and incubated for 1 h at 60° C. At least three slides from each adipose tissue sample with 300 μm distance between sections were collected for histological staining. Prior to Hematoxylin and Eosin (H&E), all sections were subjected to de-paraffinized and hydrated by decreasing concentrations of ethanol in deionized water.
De-paraffinized and hydrated slides were immersed in Meyer's Hematoxylin solution (Cat #HX68597049, MERCK) for 5 min, washed for 5 min with tap water, and then immersed in Eosin solution (Cat #HX6109259, MERCK) for 2 min, rehydrated and mounted with Entalain.
Macrophages were evaluated by a scoring system using light microscopy. A score of 1 is characterized by the absence of crown like structures in framed field, 10-20 crowns characterize the score of 2, a score of 3—20-30 crown like structures, a score of 4—30-40 crowns and a score of 5—abundant crowns (40-50).

For test [2], the system named is serum cytokines. The experiment in a line: Serum cytokine array after sub-chronic treatment of submissive mice. The format is in vivo. How it is done:
Submissive mice are derivates from “Sabra” strain were maintained under a 12 h light/12 h dark cycle with Purina rodent chow (Envigo, Israel) and water provided ad libitum. The animals were housed five per cage. All procedures with animals were performed after review and approval by the Institutional Animal Care and Use Committee of Ariel University.
Blood samples of submissive mice treated with control, as well as 10 and 30 mg/kg of ALOS4 were collected by terminal bleeding from the heart and centrifuged at 14,000 rpm for 20 min. Serum was removed to a new tube and stored at −80° C. for future use. Mouse XL Cytokine Array Kit (Cat #ARYO28, R&D) was used to detect the cytokines in the serum of submissive mice according to the manufacturer's instructions. Serum from treatment groups (saline, 10 and 30 mg/kg ALOS4) was added to each membrane. Streptavidin-HRP and Chemi Reagent Mix were used to detect the antibodies bound to the membrane. The membranes were then exposed (Image Quant LAS4000 mini; GE Healthcare, Milwaukee, WI, USA) and analyzed using ImageQuant TL software (GE Healthcare).

Test [3] concerns interferon type I signaling. The test is described as follows: ISRE response, HT1080 ISRE mCherry reporter cells stimulated with Poly I:C. The class given is cell-based. To be noted: pretreatment with 0.3 μM for 48 h, FIG. 1A, 1C. How it is done: (§1) HT1080 cells transfected with mCherry reporter under an ISRE (Interferon-Sensitive Response Element) promoter and HCT116 with Luc reporter under ISRE promoter were used. Raw 264.7 (undifferentiated murine macrophages) cell line was also used. The cells were cultured in appropriate media: Dulbecco's Modified Eagle Medium (DMEM) (Cat #41965-039, Gibco) with 4.5 g/l glucose and L-glutamine augmented with 10% FBS (Gibco, Grand Island, NY), 100 U/ml penicillin and 100 μg/ml streptomycin in a humidified atmosphere at 37° C. with 5% CO2.
HT1080 ISRE mCherry cells were plated in 6-well plates at 2×10^4 cells/well. […] Following the 48 hour incubation, 25 μg/well of Polyinosinic:polycytidylic acid (Poly I:C)—a chemical compound structurally similar to double-stranded RNA and acting via Toll Like Receptor-3 molecular pathway activation, was added for an additional 16 h incubation. After this second incubation, cells were subjected to fluorescent imaging followed by washing with 1×PBX, trypsinization and resuspension with 300 μl of 1×PBS. 200 μl of cell suspension were further loaded into 96-well black clear bottom plates. Strength of mCherry fluorescence signal was detected by an ELISA reader with multiple reads per well at 574Ex/610Em.

Test [4] deals with interferon type I signaling. The experiment in a line: ISRE response, HCT116 ISRE Luc reporter cells stimulated with Poly I:C. The format is cell-based. Particulars: pretreatment with 0.3 μM for 48 h, FIG. 1B. How it is done: as §1
HCT116 ISRE Luc cells were plated in 96-well plates at 3×10^3 cells/well. The next day DMEM was replaced with DMEM containing 0.3 μM of ALOS4 or saline as control with/without PEI—transfection reagent, and cells continued to grow for 48 h. Following the 48 h incubation 1 μg/ml of Poly I:C was added for an additional 16 h incubation. After this second incubation the media was removed, 30 μl of Bright-Glo™ Luciferase Assay System (Promega, Cat #E2610) was added. Plate was read with plate reader on Luminescent parameters.

Test [5] relates to Raw267.4 cells. The experiment in a line: Nitric oxide level assay, LPS-induced macrophage differentiation. Particulars: FIG. 2D. The format is cell-based, mouse. How it is done:
Ability of ALOS4 to affect macrophage differentiation to pro- and anti-inflammatory macrophages was evaluated on mouse monocyte macrophages (Raw267.4) using the nitric oxide level assay. Cells were plated at a density of 1×10^5 cells/ml in 12 well plates for 12 h, followed by treatment with LPS (200 ng/ml) and ALOS4 (0.3 and 30 μM). Nitric oxide production of monocyte differentiation to pro-inflammatory M1 was detected with Griess reaction kit (Cat #G2930, Promega) according to the protocol. The absorbance was read at 540 nm with ELISA plate reader (Tecan infinite M200pro, Switzerland) and nitric oxide concentration was calculated using the Nitrite Standard Reference Curve.

The mark [6] stands for this setting: 10 and 30 mg/kg i.v., every second day within 10 days, FIG. 2A.

“H-cycl (Cys-Ser-Ser-Ala-Gly-Ser-Leu-Phe-Cys)-OH (H-CSSAGSLFC-OH; disulfide 1-9 (inferred)) [ALOS4]”: the “frequency of crown-like structures in fat pads” value in test [1] was “a decrease in frequency was observed”. In test [2] (setting [6]), the IL-1α/IL-1F1 in blood entry is “did not change” and the “total interleukins in blood as compared to the control group” value is listed as “downregulation”. Moreover, in test [2] (sub-chronic 10 and 30 mg/kg, FIG. 2B), the “pro-inflammatory markers (Jak-STAT signaling pathway) in serum” value is “strong tendency toward down-regulation”. In test [3], the “ability of cells to induce interferon type I signaling in response to Poly I:C (mCherry fluorescence)” value is recorded as “suppressed”. In addition, in test [4], the “ability of cells to induce interferon type I signaling in response to Poly I:C (luciferase)” value was “suppressed”. Further, in test [5] (LPS-induced, one-way ANOVA p<0.01 and p<0.001), the “nitric oxide (indicator of differentiation to pro-inflammatory macrophages)” value is given as “significant dose-dependent decrease”. Further, in test [5] (Raw267.4 cells, LPS 200 ng/ml, 0.3 and 30 μM for 24 hours), the “differentiation of macrophages to pro-inflammatory M1” value was “inhibited differentiation of the macrophages to pro-inflammatory M1 in a dose dependent manner”.
